Test results published in doi:10.1101/2023.04.01.534865v1 (biorxiv, 2023).

Molecular target: T1, GST-OSBP(377-807) (Homo sapiens, UniProt P22059)
T1 sequence (P22059 377-807): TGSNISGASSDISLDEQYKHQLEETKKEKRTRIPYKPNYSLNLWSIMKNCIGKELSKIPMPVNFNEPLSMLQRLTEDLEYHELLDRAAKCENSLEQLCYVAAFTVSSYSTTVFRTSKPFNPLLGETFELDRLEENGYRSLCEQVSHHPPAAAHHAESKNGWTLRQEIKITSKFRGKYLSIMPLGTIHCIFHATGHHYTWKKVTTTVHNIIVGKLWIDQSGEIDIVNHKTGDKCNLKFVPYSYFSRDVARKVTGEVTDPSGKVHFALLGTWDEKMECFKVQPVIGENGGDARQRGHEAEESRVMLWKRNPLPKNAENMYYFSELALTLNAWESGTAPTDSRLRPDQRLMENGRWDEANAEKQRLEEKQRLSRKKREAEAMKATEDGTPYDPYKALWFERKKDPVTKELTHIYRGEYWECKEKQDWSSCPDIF
Assay: competitive fluorescence polarization
Assay type: binding

Structure (SMILES)	IC50
C[C@H](CCC(=O)NCCCOCCCCOCCCNC(=O)OC(C)(C)C)[C@H]1CC[C@H]2[C@@H]3CC=C4C[C@@H](O)CC[C@]4(C)[C@H]3CC[C@]12C [C3_Boc, oxybipin-2]	74 nM
C[C@H](CCC(=O)NCCCOCCCCOCCCNC(=O)CC12CC3CC(CC(C3)C1)C2)[C@H]1CC[C@H]2[C@@H]3CC=C4C[C@@H](O)CC[C@]4(C)[C@H]3CC[C@]12C [C3_HyT, oxybipin-1]	142 nM
